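Compound exposure: 48 hours, 5 concentrations, 96-well plates. GI50 = concentration required for 50% inhibition of growth. Definition used: TGI = concentration required for complete inhibition of growth.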

Some test systems named below: SF-295 CNS; SR leukemia; OVCAR-8 ovarian; PC-3 prostate; SN12C renal; HT29 colon; K-562 leukemia; SK-OV-3 ovarian; MDA-MB-435; UACC-62 melanoma.
Common to all, as to test: NCI tumour cell line growth inhibition, 48 h

On to `O=c1cccc(C#CC#C/C=C/CO)o1`, for which the GI50 in the assay on SF-295 CNS is 5.84 µM; in the assay with SR leukemia, > 100 µM; with OVCAR-8 ovarian, 2.37 µM; with PC-3 prostate, 2.94 µM; in the assay with SN12C renal, 1.74 µM; in the assay on HT29 colon, 3.89 µM. Moreover, the GI50 in the assay with K-562 leukemia is 4.92 µM; in the assay on SK-OV-3 ovarian, 10.8 µM; in the assay on MDA-MB-435, 1.99 µM; in the assay with UACC-62 melanoma, 1.68 µM. The TGI with SF-295 CNS is 18.8 µM; with SR leukemia it was > 100 µM; with OVCAR-8 ovarian, 6.62 µM; in the assay on PC-3 prostate it was 11.3 µM; in the assay on SN12C renal, 4.19 µM; in the assay on HT29 colon, > 100 µM. For the same molecule, the TGI in the assay with K-562 leukemia was > 100 µM; in the assay with SK-OV-3 ovarian, 22.8 µM; in the assay on MDA-MB-435, 4.69 µM; in the assay with UACC-62 melanoma it was 3.39 µM.
In the case of `COc1ccc(-c2coc3cc(OC)cc(O)c3c2=O)cc1`, the TGI in the assay on SF-295 CNS, with SR leukemia, with OVCAR-8 ovarian, in the assay with PC-3 prostate, with SN12C renal and with HT29 colon was > 100 µM each time. In addition, the TGI in the assay on K-562 leukemia, in the assay with SK-OV-3 ovarian, with MDA-MB-435 and in the assay with UACC-62 melanoma was > 100 µM in each case.
Take `CNC1C(OC2C(OC3C(O)C(O)C(O)C(O)C3O)OC(C)C2(O)CO)OC(CO)C(O)C1O` (centres undefined) (tested in a mixture with another compound): the TGI in the assay with SF-295 CNS, in the assay on SR leukemia, in the assay with OVCAR-8 ovarian, in the assay with PC-3 prostate, in the assay with SN12C renal and with HT29 colon was > 100 µM in each case. Also, the TGI with K-562 leukemia, with SK-OV-3 ovarian, in the assay with MDA-MB-435 and in the assay on UACC-62 melanoma was > 100 µM in each case.
On to `Cc1ccccc1/C=C1\CN(C(=O)OC(C)(C)C)C/C(=C\c2ccccc2C)C1=O`, for which the GI50 with SF-295 CNS is 2.19 µM; with SR leukemia it was 1.89 µM; with OVCAR-8 ovarian, 3.49 µM; in the assay on PC-3 prostate, 2.5 µM; in the assay with SN12C renal, 2.7 µM; in the assay on HT29 colon, 2.86 µM. In addition, the GI50 in the assay with K-562 leukemia was 2.86 µM; in the assay with SK-OV-3 ovarian, 5.77 µM; in the assay with MDA-MB-435 it was 2.51 µM; in the assay on UACC-62 melanoma, 2 µM. Also, the TGI in the assay with SF-295 CNS was 5.37 µM; in the assay on SR leukemia, > 100 µM; in the assay with OVCAR-8 ovarian, > 100 µM; in the assay with PC-3 prostate it was 7.69 µM; in the assay with SN12C renal, 6.43 µM; with HT29 colon, 7.61 µM. Besides, the TGI with K-562 leukemia was > 100 µM; with SK-OV-3 ovarian, 70.5 µM; with MDA-MB-435, 5.45 µM; in the assay on UACC-62 melanoma, 4.42 µM.
Turning to `CCCCCCCCCC(CCCC(O)CC(=O)O)OC1OC(COC2OC(C)C(O)C(O)C2O)C(O)C(O)C1OC1OC(CO)C(O)C(O)C1OC1OC(C)C(O)C(O)C1O` (centres undefined), the GI50 with SF-295 CNS, in the assay on SR leukemia, with OVCAR-8 ovarian, in the assay with PC-3 prostate, in the assay with SN12C renal and in the assay on HT29 colon was > 40 µM throughout. Also, the GI50 in the assay with K-562 leukemia, in the assay on SK-OV-3 ovarian, in the assay on MDA-MB-435 and in the assay on UACC-62 melanoma was > 40 µM each time. For the same molecule, the TGI in the assay on SF-295 CNS, with SR leukemia, in the assay with OVCAR-8 ovarian, in the assay on PC-3 prostate, in the assay on SN12C renal and with HT29 colon was > 40 µM throughout. For the same molecule, the TGI in the assay on K-562 leukemia, in the assay with SK-OV-3 ovarian, with MDA-MB-435 and with UACC-62 melanoma was > 40 µM throughout.
With `Nc1nc2c(c3cnccc13)C(c1cccc(Cl)c1)Cc1cnccc1-2` (centres undefined), the GI50 in the assay on SF-295 CNS was 0.273 µM; in the assay with SR leukemia, 0.293 µM; with OVCAR-8 ovarian, 0.601 µM; in the assay on PC-3 prostate, 0.439 µM; in the assay with SN12C renal, 0.668 µM; in the assay with HT29 colon, 0.336 µM. The GI50 in the assay on K-562 leukemia was 0.338 µM; with SK-OV-3 ovarian, 0.51 µM; in the assay with MDA-MB-435, 0.21 µM; in the assay on UACC-62 melanoma it was 0.371 µM. In addition, the TGI is 0.914 µM in the assay on SF-295 CNS; > 100 µM in the assay with SR leukemia; 22.5 µM with OVCAR-8 ovarian; 1.66 µM in the assay with PC-3 prostate; 14.4 µM in the assay on SN12C renal; 2.56 µM with HT29 colon. The TGI turned out to be 28.7 µM in the assay on K-562 leukemia, 15 µM in the assay with SK-OV-3 ovarian, 1.46 µM with MDA-MB-435 and 12 µM in the assay on UACC-62 melanoma.
Regarding `Cn1c(=S)sc2nc3ccccc3n2c1=S`, the TGI with SF-295 CNS amounted to 50.6 µM; in the assay with SR leukemia, 23.2 µM; in the assay on OVCAR-8 ovarian, 30.1 µM; in the assay on PC-3 prostate it was 92.3 µM; in the assay on SN12C renal, 39.1 µM; in the assay on HT29 colon, 25.8 µM. The TGI in the assay on K-562 leukemia came to 21.5 µM; with SK-OV-3 ovarian, 36.5 µM; in the assay on MDA-MB-435, 35.5 µM; with UACC-62 melanoma it was 32.8 µM.
As for `N=c1ccn2c(n1)O[C@@H]1[C@@H](O)[C@H](CO)O[C@@H]12`, the GI50 in the assay on SF-295 CNS is 16.2 µM; in the assay with SR leukemia, 0.962 µM; in the assay on PC-3 prostate it was 7.57 µM; in the assay with SN12C renal, 2.86 µM; in the assay with HT29 colon it was 17 µM; in the assay with K-562 leukemia, > 100 µM. Moreover, the GI50 in the assay with SK-OV-3 ovarian was 2.85 µM; in the assay on MDA-MB-435 it was 4.13 µM; with UACC-62 melanoma, 4.93 µM. The TGI is > 100 µM with SF-295 CNS; 21 µM in the assay on SR leukemia; > 100 µM in the assay with OVCAR-8 ovarian; > 100 µM in the assay on PC-3 prostate; > 100 µM in the assay with SN12C renal; > 100 µM with HT29 colon. In addition, the TGI with K-562 leukemia, in the assay with SK-OV-3 ovarian, in the assay on MDA-MB-435 and with UACC-62 melanoma was > 100 µM each time.
Consider `Cc1ccc(NC(=O)c2nc(S(C)=O)oc2-c2ccc(F)cc2)cc1Nc1nccc(-c2cccnc2)n1` (centres undefined), for which the GI50 with SF-295 CNS is 15.1 µM; in the assay on SR leukemia, 0.726 µM; in the assay on OVCAR-8 ovarian it was 2.23 µM; in the assay with PC-3 prostate it was 2.25 µM; with SN12C renal it was 1.81 µM; with HT29 colon, 1.82 µM. The GI50 was 0.454 µM with K-562 leukemia, 10.5 µM in the assay with SK-OV-3 ovarian, 2.13 µM in the assay on MDA-MB-435 and 1.8 µM in the assay on UACC-62 melanoma. The TGI was 29.2 µM in the assay on SF-295 CNS; 3.79 µM in the assay with SR leukemia; 4.64 µM with OVCAR-8 ovarian; 4.85 µM in the assay on PC-3 prostate; 3.73 µM with SN12C renal; 3.53 µM with HT29 colon. In addition, the TGI with K-562 leukemia is 3.3 µM; with SK-OV-3 ovarian, 25.7 µM; in the assay with MDA-MB-435 it was 4.77 µM; in the assay with UACC-62 melanoma it was 3.38 µM.

Values taken from PubChem BioAssay (NCI).
